In patent US11795460B2, “Compositions and methods for TTR gene editing and treating ATTR amyloidosis” (Intellia Therapeutics, Inc., priority 2017, dated 2023):
Strand notation (5' to 3'): a small letter for the sugar, then the base; units joined by * are phosphorothioate-linked, units joined directly phosphodiester-linked; [ ] holds rarer units or linkages, { } end groups; capitals alone tell only the bases. m = 2'-O-methyl; r = 2'-OH (RNA)

Assays:
TTR [1] = assay: TTR editing in primary human hepatocytes transfected with Spy Cas9 mRNA and dgRNAs (Table 9); format: cell-based; conditions: dgRNA co-transfected with Spy Cas9 mRNA (SEQ ID NO:2)
How it was run: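 PHH sequentially lipofected with Spy Cas9 mRNA (100 ng), then crRNA plus tracrRNA (25 nM each) dual-guide lipoplex. Cells harvested 24, 48 or 72 h post-transfection; TTR target amplicons sequenced on Illumina MiSeq, editing given as percent reads with indels or substitutions over total reads.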

TTR [2] = assay: TTR editing in primary human hepatocytes electroporated with Spy Cas9 protein loaded with dgRNAs (Table 7); format: cell-based; conditions: dgRNA electroporated with Spy Cas9 protein (RNP)
How it was run: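 Editing efficiency is the fraction of NGS reads carrying insertions, deletions or substitutions at the TTR target, measured on MiSeq amplicons from DNA harvested 24, 48 or 72 h post-delivery. Cas9–dgRNA ribonucleoprotein was nucleofected (P3 buffer, EX-147) into primary human or cyno hepatocytes.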

off-target genomic sites = assay: Off-target oligo insertion based assay in HEK293_Cas9 cells, dgRNAs and sgRNAs (Tables 23, 24); format: cell-based, human; conditions: Table 23; TTR dgRNAs in HekCas9 cells, oligo insertion based assay
Procedure: An oligo insertion based assay (See, e.g., Tsai et al., Nature Biotechnology 33, 187-197; 2015) was used to determine potential off-target genomic sites cleaved by Cas9 targeting TTR. Forty-five dgRNAs from Table 1 (and two control guides with known off-target profiles) were screened in the HEK293 Cas9 cells. The human embryonic kidney adenocarcinoma cell line HEK293 constitutively expressing Spy Cas9 (“HEK293_Cas9”) was cultured in DMEM media supplemented with 10% fetal bovine serum and 500 μg/ml G418. Cells were plated at a density of 30,000 cells/well in a 96-well plate 24 hours prior to transfection. Cells were transfected with Lipofectamine RNAiMAX (ThermoFisher, Cat. 13778150) per the manufacturer's protocol. Cells were transfected with a lipoplex containing individual crRNA (15 nM), trRNA (15 nM), and donor oligo with (10 nM) Lipofectamine RNAiMAX (0.3 μL/well) and OptiMem. Cells were lysed 24 hours post transfection and genomic DNA was extracting using Zymo's Quick gDNA 96 Extraction kit (catalog #D3012) following the manufacturer's recommended protocol. The gDNA was quantified using the Qubit High Sensitivity dsDNA kit (Life Technologies). Libraries were prepared per the previously described method in Tsai et al, 2015 with minor modifications. Sequencing was performed on Illumina's MiSeq and HiSeq 2500. The assay identified potential off-target sites for some of the crRNAs which are plotted in FIG. 2.
Additionally, a subset of the guides was assessed for off-target potential as modified sgRNAs in the Hek_Cas9 cells via the oligo based insertion method described above. The off-target results were plotted in FIG. 4.

TTR [3] = assay: TTR editing in primary human hepatocytes transfected with Spy Cas9 protein (RNP) loaded with dgRNAs (Table 8); format: cell-based; conditions: dgRNA transfected with Spy Cas9 protein (RNP)
How it was run: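 Primary human hepatocytes were lipofected (RNAiMAX) with RNP of Spy Cas9 (10 nM) plus pre-annealed crRNA (10 nM) and trRNA (10 nM) and harvested 24, 48 or 72 h later. Target-site amplicons were sequenced on Illumina MiSeq and aligned to hg38; percent editing = reads with indels or substitutions over total reads.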

TTR [4] = assay: TTR editing in HepG2 cells transfected with Spy Cas9 mRNA and dgRNAs (Table 6); format: cell-based, human; conditions: HepG2 cells co-transfected with Spy Cas9 mRNA (SEQ ID NO:2) and dgRNAs
How it was run: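 Percent editing is the share of sequencing reads at the TTR target locus that carry insertions, deletions or substitutions, measured by Illumina amplicon sequencing aligned to hg38. Samples came from HepG2 cells lipofected first with 100 ng Cas9 mRNA and then with dual-guide RNA (25 nM crRNA/tracer), collected 24–72 h later.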

TTR [5] = assay: TTR editing in primary cyno hepatocytes electroporated with Spy Cas9 protein and sgRNAs (Tables 14, 15); format: cell-based, cynomolgus monkey; conditions: Table 15; primary cyno hepatocytes electroporated with Spy Cas9 protein (RNP) and cyno specific sgRNAs
Procedure: (§1) Primary liver hepatocytes. Primary human liver hepatocytes (PHH) and primary cynomolgus liver hepatocytes (PCH) (Gibco) were cultured per the manufacturer's protocol (Invitrogen, protocol 11.28.2012). In brief, the cells were thawed and resuspended in hepatocyte thawing medium with supplements (Gibco, Cat. CM7000) followed by centrifugation at 100 g for 10 minutes for human and 80 g for 4 minutes for cyno. The supernatant was discarded and the pelleted cells resuspended in hepatocyte plating medium plus supplement pack (Invitrogen, Cat. A1217601 and CM3000). Cells were counted and plated on Bio-coat collagen I coated 96-well plates (ThermoFisher, Cat. 877272) at a density of 33,000 cells/well for human or 60,000 cells/well for cyno (or 65,000 cells/well when assaying effects on TTR protein, described further below). Plated cells were allowed to settle and adhere for 6 or 24 hours in a tissue culture incubator at 37° C. and 5% CO2 atmosphere. After incubation cells were checked for monolayer formation and media was replaced with hepatocyte culture medium with serum-free supplement pack (Invitrogen, Cat. A1217601 and CM4000).
[…] formation was performed prior to electroporation or transfection of Spy Cas9 protein loaded with guide RNAs (RNPs) onto cells. For dual guide (dgRNAs), individual crRNA and trRNA was pre-annealed by mixing equivalent amounts of reagent and incubating at 95° C. for 2 min and cooling to room temperature. Single guide (sgRNAs) were boiled at 95° C. for 2 min and cooling to room temperature. The boiled dgRNA or sgRNA was incubated with Spy Cas9 protein in Optimem for 10 minutes at room temperature to form a ribonucleoprotein (RNP) complex.
For RNP electroporation into primary human and cyno hepatocytes, the cells are thawed and resuspended in Lonza electroporation Primary Cell P3 buffer at a concentration of 2500 cells per μL for human hepatocytes and 3500 cells per μL for cyno hepatocytes. A volume of 20 μL of resuspended cells and 5 μL of RNP are mixed together per guide. 20 μL of the mixture is placed into a Lonza electroporation plate. The cells were electroporated using the Lonza nucleofector with the preset protocol EX-147. Post electroporation, the cells are transferred into a Biocoat plate containing pre-warmed maintenance media and placed in a tissue culture incubator at 37° C. and 5% CO2.
Transfected cells were harvested post-transfection at 24, 48, or 72 hours. The genomic DNA was extracted from each well of a 96-well plate using 50 μL/well BuccalAmp DNA Extraction solution (Epicentre, Cat. QE09050) per manufacturer's protocol. All DNA samples were subjected to PCR and subsequent NGS analyses, as described herein.
(§2) To quantitatively determine the efficiency of editing at the target location in the genome, sequencing was utilized to identify the presence of insertions and deletions introduced by gene editing.
(§3) Primers were designed around the target site within the gene of interest (e.g. TTR), and the genomic area of interest was amplified.
(§4) Additional PCR was performed per the manufacturer's protocols (Illumina) to add chemistry for sequencing. The amplicons were sequenced on an Illumina MiSeq instrument. The reads were aligned to a reference genome (e.g., the human reference genome (hg38), the cynomologus reference genome (mf5), the rat reference genome (rn6), or the mouse reference genome (mm10)) after eliminating those having low quality scores. The resulting files containing the reads were mapped to the reference genome (BAM files), where reads that overlapped the target region of interest were selected and the number of wild type reads versus the number of reads which contain an insertion, substitution, or deletion was calculated.
The editing percentage (e.g., the “editing efficiency” or “percent editing” or “indel frequency”) is defined as the total number of sequence reads with insertions/deletions (“indels”) or substitutions over the total number of sequence reads, including wild type. […]

TTR [6] = assay: TTR editing in primary cyno hepatocytes treated with LNP formulated Spy Cas9 mRNA (SEQ ID NO: 2) and sgRNAs (Tables 17, 18); format: cell-based, cynomolgus monkey; conditions: LNP formulated Spy Cas9 mRNA (SEQ ID NO: 2) and cyno matched sgRNAs, 72 hours post treatment
Procedure: as §1
In general, the lipid nanoparticle components were dissolved in 100% ethanol with the lipid component of various molar ratios. The RNA cargos were dissolved in 25 mM citrate, 100 mM NaCl, pH 5.0, resulting in a concentration of RNA cargo of approximately 0.45 mg/mL. The LNPs were formulated with a lipid amine to RNA phosphate (N:P) molar ratio of about 4.5 or about 6, with the ratio of mRNA to gRNA at 1:1 by weight.
The LNPs were formed by microfluidic mixing of the lipid and RNA solutions using a Precision Nanosystems NanoAssemblr™ Benchtop Instrument, according to the manufacturer's protocol. A 2:1 ratio of aqueous to organic solvent was maintained during mixing using differential flow rates. After mixing, the LNPs were collected, diluted in water (approximately 1:1 v/v), held for 1 hour at room temperature, and further diluted with water (approximately 1:1 v/v) before final buffer exchange. The final buffer exchange into 50 mM Tris, 45 mM NaCl, 5% (w/v) sucrose, pH 7.5 (TSS) was completed with PD-10 desalting columns (GE). If required, formulations were concentrated by centrifugation with Amicon 100 kDa centrifugal filters (Millipore). The resulting mixture was then filtered using a 0.2 μm sterile filter. The final LNP was stored at −80° C. until further use.
as §2, §3, §4
The editing percentage (e.g., the “editing efficiency” or “percent editing” or “indel frequency”) is defined as the total number of sequence reads with insertions/deletions (“indels”) or substitutions over the total number of sequence reads, including wild type.
Lipid nanoparticle formulations of modified sgRNAs targeting human TTR and the cyno matched sgRNA sequences were tested on primary human hepatocytes and primary cyno hepatocytes in a dose response curve. Primary human and cyno hepatocytes were plated as described in Example 1. […]

GGCCGUGCAUGUGUUCAGAA (tested as dual guide RNA, chemistry not given here) [CR005304]
Avg % Deletion (TTR [1]): 44.47%
Avg % Edit (TTR [1]): 45.27%
Avg % Insert (TTR [1]): 0.83%
Avg % Deletion (TTR [2]): 61.63%
Avg % Edit (TTR [2]): 67.00%
Avg % Insert (TTR [2]): 5.53%
# Sites (off-target integration sites detected) (off-target genomic sites): 0
Avg % Deletion (TTR [3]): 45.13%
Avg % Edit (TTR [3]): 49.45%
Avg % Insert (TTR [3]): 4.32%
Avg % Deletion (TTR [4]): 54.75%
Avg % Edit (TTR [4]): 62.82%
Avg % Insert (TTR [4]): 8.07%

UCACAGAAACACUCACCGUA (tested as dual guide RNA, chemistry not given here) [CR005300]
Avg % Deletion (TTR [1]): 3.97%
Avg % Edit (TTR [1]): 31.53%
Avg % Insert (TTR [1]): 27.60%
Avg % Deletion (TTR [2]): 4.10%
Avg % Edit (TTR [2]): 57.47%
Avg % Insert (TTR [2]): 53.47%
# Sites (off-target integration sites detected) (off-target genomic sites): 0
Avg % Deletion (TTR [3]): 3.61%
Avg % Edit (TTR [3]): 57.23%
Avg % Insert (TTR [3]): 53.62%
Avg % Deletion (TTR [4]): 11.15%
Avg % Edit (TTR [4]): 64.34%
Avg % Insert (TTR [4]): 53.20%

B1: G000511: TTR Cyno specific sgRNA modified sequence, SEQ ID No. 123; guide sequence of CR005371 (nucleic acid)
guide: mA*mA*mG*rUrGrArCrUrUrCrCrArGrUrArArGrArUrUrGrUrUrUrUrArGrAmGmCmUmAmGmAmAmAmUmAmGmCrArArGrUrUrArArArArUrArArGrGrCrUrArGrUrCrCrGrUrUrArUrCrAmAmCmUmUmGmAmAmAmAmAmGmUmGmGmCmAmCmCmGmAmGmUmCmGmGmUmGmCmU*mU*mU*mU
Avg % Deletion (TTR [5]): 2.00%
Avg % Edit (TTR [5]): 62.77%
Avg % Insert (TTR [5]): 60.87%

B2: G000509: TTR Cyno specific sgRNA modified sequence, SEQ ID No. 121; guide sequence of CR005369 (nucleic acid)
guide: mA*mA*mA*rGrUrUrCrUrArGrArUrGrCrCrGrUrCrCrGrGrUrUrUrUrArGrAmGmCmUmAmGmAmAmAmUmAmGmCrArArGrUrUrArArArArUrArArGrGrCrUrArGrUrCrCrGrUrUrArUrCrAmAmCmUmUmGmAmAmAmAmAmGmUmGmGmCmAmCmCmGmAmGmUmCmGmGmUmGmCmU*mU*mU*mU
Avg % Deletion (TTR [5]): 49.73%
Avg % Edit (TTR [5]): 93.03%
Avg % Insert (TTR [5]): 43.60%
12.5 ng mRNA, 3.9 nM sgRNA % Edit (TTR [6]): 74.47%

B3: G000507: TTR Cyno specific sgRNA modified sequence, SEQ ID No. 119; guide sequence of CR005367 (nucleic acid)
guide: mC*mC*mA*rGrUrCrCrArGrCrGrArGrGrCrArGrArGrGrGrUrUrUrUrArGrAmGmCmUmAmGmAmAmAmUmAmGmCrArArGrUrUrArArArArUrArArGrGrCrUrArGrUrCrCrGrUrUrArUrCrAmAmCmUmUmGmAmAmAmAmAmGmUmGmGmCmAmCmCmGmAmGmUmCmGmGmUmGmCmU*mU*mU*mU
Avg % Deletion (TTR [5]): 4.60%
Avg % Edit (TTR [5]): 71.17%
Avg % Insert (TTR [5]): 67.03%

B4: G000508: TTR Cyno specific sgRNA modified sequence, SEQ ID No. 120; guide sequence of CR005368 (nucleic acid)
guide: mC*mC*mU*rCrCrUrCrUrGrCrCrUrCrGrCrUrGrGrArCrGrUrUrUrUrArGrAmGmCmUmAmGmAmAmAmUmAmGmCrArArGrUrUrArArArArUrArArGrGrCrUrArGrUrCrCrGrUrUrArUrCrAmAmCmUmUmGmAmAmAmAmAmGmUmGmGmCmAmCmCmGmAmGmUmCmGmGmUmGmCmU*mU*mU*mU
Avg % Deletion (TTR [5]): 4.17%
Avg % Edit (TTR [5]): 45.63%
Avg % Insert (TTR [5]): 41.57%
